From PubChem BioAssay (NCI) come the findings set out here.

Test systems include RXF 393 renal; OVCAR-5 ovarian; KM12 colon; CCRF-CEM leukemia; NCI-H460 lung; SF-539 CNS; NCI/ADR-RES ovarian; SN12C renal; CAKI-1 renal; SK-MEL-2 melanoma; T-47D breast; 786-0 renal; PC-3 prostate; SF-295 CNS; MALME-3M melanoma; DU-145 prostate; HS 578T breast; U251 CNS; K-562 leukemia; UO-31 renal.
Experiment in all cases: growth of human tumour cells (NCI), 48 h

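In this assay, cells in 96-well plates receive the compound at five concentrations for 48 hours. Endpoints are linearly interpolated between the surrounding concentrations. TGI marks complete inhibition of growth.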 Bounds are passed on as bounds.

Regarding `O=C1c2ccccc2NC(=O)C2C1C(c1ccccc1)CC2(O)c1ccccc1` (stereo unspecified), the TGI in the assay with RXF 393 renal, with OVCAR-5 ovarian, in the assay with KM12 colon, in the assay on CCRF-CEM leukemia, with NCI-H460 lung and in the assay on SF-539 CNS was over 100 µM throughout. Moreover, the TGI in the assay on NCI/ADR-RES ovarian, with SN12C renal, with CAKI-1 renal, in the assay on SK-MEL-2 melanoma, in the assay with T-47D breast and in the assay on 786-0 renal was over 100 µM in each case. In addition, the TGI is 74.3 µM in the assay on PC-3 prostate; over 100 µM in the assay on SF-295 CNS; over 100 µM in the assay on MALME-3M melanoma; over 100 µM with DU-145 prostate; 98.3 µM with HS 578T breast.
As to `CC1(C)O[C@@H]2[C@@H](COC(=O)c3ccccc3)C[C@@H](C#N)[C@@H]2O1`, the TGI in the assay with U251 CNS, in the assay with RXF 393 renal, in the assay with OVCAR-5 ovarian, in the assay with KM12 colon, with K-562 leukemia and in the assay on CCRF-CEM leukemia was over 100 µM in each case. Moreover, the TGI with NCI-H460 lung, in the assay with SF-539 CNS, in the assay on NCI/ADR-RES ovarian, in the assay with SN12C renal, in the assay on T-47D breast and in the assay on 786-0 renal was over 100 µM each time. Moreover, the TGI with PC-3 prostate, with SF-295 CNS, with MALME-3M melanoma, in the assay with UO-31 renal, in the assay on DU-145 prostate and in the assay on HS 578T breast was over 100 µM throughout.
With `O=C(CC(C(=O)c1cccs1)c1ccsc1)c1cccs1` (stereo unspecified), the TGI with U251 CNS, with RXF 393 renal, with OVCAR-5 ovarian, with KM12 colon, in the assay with K-562 leukemia and in the assay with CCRF-CEM leukemia was over 100 µM throughout. For the same compound, the TGI in the assay with NCI-H460 lung, with SF-539 CNS, in the assay on NCI/ADR-RES ovarian, in the assay with SN12C renal, with CAKI-1 renal and in the assay on T-47D breast was over 100 µM throughout. Moreover, the TGI in the assay with 786-0 renal, with PC-3 prostate, with SF-295 CNS, in the assay with MALME-3M melanoma, in the assay on UO-31 renal and in the assay with DU-145 prostate was over 100 µM in each case. In addition, in the assay with HS 578T breast, the TGI is over 100 µM.
Turning to `CNC(=O)c1n[nH]nc1Sc1c([N+](=O)[O-])ncn1C`, the TGI in the assay with U251 CNS, with RXF 393 renal, in the assay on OVCAR-5 ovarian, in the assay on KM12 colon, with K-562 leukemia and in the assay on CCRF-CEM leukemia was over 100 µM in each case. Also, the TGI in the assay on NCI-H460 lung, in the assay with SF-539 CNS, in the assay on NCI/ADR-RES ovarian, in the assay with SN12C renal, in the assay with CAKI-1 renal and with SK-MEL-2 melanoma was over 100 µM throughout. Besides, the TGI with T-47D breast, in the assay with 786-0 renal, with PC-3 prostate, in the assay with SF-295 CNS, in the assay with UO-31 renal and with DU-145 prostate was over 100 µM in each case. In the assay with HS 578T breast, this compound returned a TGI of over 100 µM.
As for `CC(C)=NN/C(=N\S(=O)(=O)c1ccc(C)cc1)Nc1ccc(Cl)cc1`, the TGI in the assay on U251 CNS, in the assay on OVCAR-5 ovarian, in the assay on KM12 colon, in the assay with K-562 leukemia, in the assay with CCRF-CEM leukemia and with NCI-H460 lung was over 100 µM each time. Moreover, the TGI in the assay with NCI/ADR-RES ovarian, in the assay on SN12C renal, in the assay with CAKI-1 renal, in the assay with SK-MEL-2 melanoma, with T-47D breast and with 786-0 renal was over 100 µM throughout. The TGI in the assay with PC-3 prostate, in the assay on SF-295 CNS, in the assay on MALME-3M melanoma, with UO-31 renal, with DU-145 prostate and in the assay with HS 578T breast was over 100 µM in each case.
As to `C=CCN1C(=O)/C(=C/c2ccc(OC)cc2)NC1=S`, the TGI with U251 CNS was over 100 µM; in the assay with RXF 393 renal, over 100 µM; with OVCAR-5 ovarian, over 100 µM; with KM12 colon, over 100 µM; with K-562 leukemia it was over 100 µM; in the assay on CCRF-CEM leukemia, 13.1 µM. Further, the TGI with NCI-H460 lung, in the assay with SF-539 CNS, in the assay on NCI/ADR-RES ovarian, in the assay with SN12C renal, in the assay with CAKI-1 renal and with SK-MEL-2 melanoma was over 100 µM each time. Besides, the TGI in the assay with T-47D breast, with 786-0 renal, in the assay on PC-3 prostate, in the assay with SF-295 CNS, in the assay on UO-31 renal and in the assay on DU-145 prostate was over 100 µM each time. The TGI with HS 578T breast is over 100 µM.
On to `CC(C)(C)OC(=O)c1cnc(Cl)cn1`, for which the TGI in the assay on U251 CNS was over 100 µM; with OVCAR-5 ovarian, over 100 µM; in the assay with KM12 colon it was over 100 µM; with K-562 leukemia it was over 100 µM; in the assay on CCRF-CEM leukemia, 72.7 µM; with NCI-H460 lung, over 100 µM. For the same compound, the TGI in the assay on SF-539 CNS was over 100 µM; with NCI/ADR-RES ovarian, over 100 µM; in the assay on SN12C renal, over 100 µM; in the assay with CAKI-1 renal it was 16.6 µM; with SK-MEL-2 melanoma it was 80.6 µM; in the assay on T-47D breast, over 100 µM. Further, the TGI in the assay on 786-0 renal is over 100 µM; in the assay on PC-3 prostate it was over 100 µM; in the assay on SF-295 CNS, over 100 µM; in the assay on MALME-3M melanoma, over 100 µM; in the assay with UO-31 renal, 18.5 µM; in the assay with DU-145 prostate it was over 100 µM. The TGI with HS 578T breast was over 100 µM.
As for `COc1ccc(C(=O)Cn2c(C(=O)/C=C/c3ccco3)nc3ccccc32)cc1`, the TGI in the assay on U251 CNS, with RXF 393 renal, with OVCAR-5 ovarian, in the assay with KM12 colon, in the assay on K-562 leukemia and in the assay with CCRF-CEM leukemia was over 100 µM in each case. The TGI was over 100 µM in the assay with NCI-H460 lung; over 100 µM with SF-539 CNS; 75.2 µM with NCI/ADR-RES ovarian; over 100 µM in the assay on SN12C renal; 51.6 µM with SK-MEL-2 melanoma; over 100 µM in the assay on T-47D breast. Also, the TGI is over 100 µM with 786-0 renal; over 100 µM in the assay with PC-3 prostate; over 100 µM in the assay on MALME-3M melanoma; over 100 µM in the assay on UO-31 renal; over 100 µM in the assay on DU-145 prostate; 63.8 µM with HS 578T breast.
Regarding `COc1ccc(-c2c(=O)[nH]n3c(=S)nc(-c4ccccc4)[nH]c23)cc1OC`, the TGI in the assay on U251 CNS stood at 58.5 µM; in the assay on RXF 393 renal, 32.4 µM; in the assay with OVCAR-5 ovarian, 47.3 µM; in the assay on KM12 colon, 35.8 µM; with K-562 leukemia, 95 µM; in the assay with CCRF-CEM leukemia, 31.1 µM. The TGI was over 100 µM with NCI-H460 lung; 55.7 µM with NCI/ADR-RES ovarian; 37.3 µM in the assay on SN12C renal; 51.6 µM in the assay on CAKI-1 renal; 42.6 µM with T-47D breast; 33.9 µM in the assay with 786-0 renal. Besides, the TGI with PC-3 prostate is 90.7 µM; in the assay on SF-295 CNS, 51.4 µM; in the assay with MALME-3M melanoma, 40.7 µM; in the assay with UO-31 renal it was 33.8 µM; in the assay with DU-145 prostate it was 52.3 µM; with HS 578T breast, over 100 µM.
Regarding `CC(=O)N1OC(C)CC1Nc1ccc(Br)cc1` (stereo unspecified), the TGI in the assay on U251 CNS, in the assay with RXF 393 renal, in the assay on OVCAR-5 ovarian, with KM12 colon, in the assay with K-562 leukemia and with CCRF-CEM leukemia was over 100 µM each time. The TGI in the assay on NCI-H460 lung, in the assay with SF-539 CNS, in the assay on NCI/ADR-RES ovarian, with SN12C renal, in the assay with SK-MEL-2 melanoma and with T-47D breast was over 100 µM each time. Besides, the TGI in the assay with 786-0 renal, in the assay with PC-3 prostate, in the assay with SF-295 CNS, in the assay with MALME-3M melanoma, with UO-31 renal and in the assay on DU-145 prostate was over 100 µM in each case. This compound gave a TGI with HS 578T breast of over 100 µM.
For the compound `CCCCCCCCCc1cc(-c2ccc(C=O)s2)sc1-c1ccc(C=O)s1`, the TGI was 29 µM in the assay with U251 CNS; 35.4 µM with RXF 393 renal; over 91.6 µM in the assay on OVCAR-5 ovarian; over 100 µM in the assay with KM12 colon; over 38 µM in the assay with K-562 leukemia; 8.51 µM with CCRF-CEM leukemia. The TGI in the assay with NCI-H460 lung is over 83.2 µM; in the assay with SF-539 CNS, over 84.3 µM; with NCI/ADR-RES ovarian, over 78.6 µM; in the assay on SN12C renal, over 84 µM; in the assay on SK-MEL-2 melanoma, 64.4 µM; with T-47D breast, over 85.6 µM. Moreover, the TGI in the assay on 786-0 renal was over 85.2 µM; in the assay on PC-3 prostate it was over 100 µM; in the assay with SF-295 CNS, over 100 µM; in the assay on MALME-3M melanoma it was over 100 µM; with UO-31 renal, 63.3 µM; in the assay with DU-145 prostate, over 100 µM. Further, in the assay on HS 578T breast, the TGI amounted to 46.5 µM.
For the compound `CCOC(=O)C(/C=N\C(=S)Nc1ccc(Cl)c(Cl)c1)=C(/O)c1ccccc1`, the TGI in the assay with U251 CNS, in the assay with RXF 393 renal, in the assay on OVCAR-5 ovarian, in the assay with KM12 colon, in the assay on CCRF-CEM leukemia and in the assay on NCI-H460 lung was over 100 µM throughout. For the same compound, the TGI with NCI/ADR-RES ovarian is over 100 µM; with SN12C renal, over 100 µM; with CAKI-1 renal, 84.9 µM; with SK-MEL-2 melanoma it was 77.1 µM; in the assay on T-47D breast, over 100 µM; in the assay with 786-0 renal it was over 100 µM. Moreover, the TGI in the assay with PC-3 prostate was over 100 µM; with SF-295 CNS it was over 100 µM; in the assay on MALME-3M melanoma it was over 100 µM; in the assay with UO-31 renal it was 16.6 µM; in the assay on DU-145 prostate, over 100 µM; in the assay with HS 578T breast, 10.5 µM.
